Key:
NI16 RNA = assay: Induction of NI16 mRNA by SA and BTH spray, RNA blot hybridization; format: in vivo, Arabidopsis; details: WS-O plants sprayed with 5 mM SA or 300 μm BTH
Protocol: RNA is prepared from 4 week old Wassilewskija (WS—O) plants, that are either sprayed with water, a 5 mM solution of sodium salicylate (SA), or a 300 μm solution of benzo-(1,2,3)-thiadiazole-7-carbothioic acid S-methyl ester (BTH). […] RNA extractions and RNA blot hybridizations are performed as described previously by Ausubel et al. (1987). NI16 RNA is induced 5–10 fold within 15 minutes of SA or BTH induction and reaches a peak of approximately 50 fold induction within 2 hours of SA treatment and 25 fold induction with BTH treatment.

Arabidopsis PR1 promoter = assay: GUS florescence assay of promoter::GUS plants after SA application, Arabidopsis PR1 promoter; format: in vivo; details: 5 mM SA spray
Excerpt: A binary promoter::reporter plasmid (pNOV2374) for Arabidopsis transformation was constructed. The regulatory/promoter sequence was fused to the GUS reporter gene (Jefferson et al. (1987) EMBO J 6: 3901-3907) by recombination using […] Technology according to the manufacturer's protocol as described in the Instruction Manual (LifeTechnologies, Rockville, Md.). The construct was then transformed into Agrobacterium tumefaciens strains by electroporation. pNOV2374 is a binary vector with a VS1 origin of replication, a copy of the Agrobacterium virg gene in the backbone, and a Basta® resistance selectable marker cassette between the left and right border sequences of the T-DNA. The Basta® selectable marker cassette comprises the Agrobacterium tumefaciens manopine synthase promoter (AtMas) (Barker et al., Plant Mol. Biol. 2, 335-350 (1983)) operably linked to the gene encoding Basta® resistance (i.e., the “BAR” gene, phosphinothricin acetyl transferase) (White et al., Nucl Acids Res 18: 1062 (1990)) and the 35S terminator. The AtMas promoter, the BAR coding sequence, and the 35S terminator are located at nt 4211 to nt 4679, nt 4680 to nt 5228, and nt 5263 to nt 5488, respectively, of pNOV2374. The vector contains […] recombination components, which were introduced into the binary vector backbone by ligating a blunt-ended cassette containing attR sites, ccdB, and a cholramphenicol resistance marker using the […] Vector Conversion System (LifeTechnologies, Rockville, Md.). The […] cassette was located between nt 126 and 1818 of pNOV2374. The promoter cassettes were inserted through an LR recombination reaction whereby the DNA sequence of pNOV2374 between nt 126 and nt 1818 were removed and replaced with the promoter of interest flanked by att sequences. […] The GIG gene (SEQ ID NO:29) contains the ST-LS1 intron from Solanum tuberosum at nt 385 to nt 576 of GUS (obtained from Dr. Stanton […], Purdue University, and described in Narasimhulu, et al. (1996) Plant Cell 8: 873-886.). The orientation of the selectable marker and promoter-reporter cassettes in the binary vector construct was as follows: For the purpose of comparing promoter activity, additional constructs were produced with the known Arabidopsis PR1 (SEQ ID NO:30) and SMAS (SEQ ID NO:31) promoters (see Plant J. 16 (2) 223-233 (1998) and Plant Mol. Biol. 20 (2) 219-233 (1992), respectively) operatively linked to the GIG gene (SEQ ID NO:29) and the […]. […] The treatment was applied as a fine mist to the leaves. […] For quantitative analysis of promoter activity following induction treatments or in various Arabidopsis tissues and organs, GUS expression is measured florometrically. Tissue samples were harvested and ground in ice cold GUS extraction buffer (50 mM Na2HPO4 pH 7.0, 5 mM DTT, 1 mM Na2EDTA, 0.1% TritonX100, 0.1% sarcosyl). Ground samples were spun in a microfuge at 10,000 rpm for 15 minutes at 4° C. Following centrifugation, the supernatant was removed for the GUS assay and for a protein concentration determination. To measure GUS activity, the plant extract was assayed in GUS assay buffer (50 mM Na2HPO4 pH 7.0, 5 mM DTT, 1 mM Na2EDTA, 0.1% TritonX100, 0.1% sarcosyl, 1 mM 4-Methylumbelliferyl-beta-D-glucuronic acid dihydrate (MUG)), pre-warmed to 37° C. Reactions were incubated, and 100 uL aliquots were removed at 10 minute intervals over 30 minutes to stop the reaction by adding the 100 uL aliquots to tubes containing 900 uL of 2% Na2CO3. The stopped reactions were then read on a Tecan Spectroflourometer at 365 nm excitation and 455 emission wavelengths. Protein concentrations were determined using the BCA assay following the manufacturer's protocol. GUS activity is expressed as pmol MU/mg protein/min.

O=C(O)c1ccccc1O [SA, salicylic acid]
time NI16 transcript remains highly induced after treatment (NI16 RNA): up to 24 hours | NI16 RNA peak induction (NI16 RNA; peak, within 2 hours of SA treatment): approximately 50 fold | GUS Activity Induced by SA (Arabidopsis PR1 promoter; 2 h): 57.7 pmol/mg protein/min | GUS activity Fold-change relative to T0 (uninduced) (Arabidopsis PR1 promoter; 2 h): 3.4 fold | GUS Activity Induced by SA (Arabidopsis PR1 promoter; 4 h): 254.7 pmol/mg protein/min | GUS activity Fold-change relative to T0 (uninduced) (Arabidopsis PR1 promoter; 4 h): 15.2 fold | GUS Activity Induced by SA (Arabidopsis PR1 promoter; 8 h): 206.5 pmol/mg protein/min | GUS Activity Induced by SA (Arabidopsis PR1 promoter; 24 h): 393.1 pmol/mg protein/min | GUS activity Fold-change relative to T0 (uninduced) (Arabidopsis PR1 promoter; 24 h): 23.4 fold
